Laboratory results published in patent US11021475B2, “Amide-substituted heterocyclic compounds useful as modulators of IL-12, IL-23 and/or IFN alpha responses” (Bristol-Myers Squibb Company, priority 2012, dated 2021).
pIC50: −log10 of the molar value. Like-named read-outs stand apart in the source and are kept apart here.

Assays:
[1] = tested on: IL-23 stimulated Kit225 T cells (STAT-dependent luciferase reporter); assay: Kit225 T cell assay, IL-23-stimulated STAT-dependent luciferase reporter; type: cell-based, human; conditions: for pIC50: 20 ng/mL human recombinant IL-23, 5-6 hours, read-out: IL-23 Kit225 Reporter (IC50)
Experimental: (§1) Kit225 T cells with a stably-integrated STAT-dependent luciferase reporter were plated in RPMI (Gibco) containing 10% heat-inactivated FBS (Gibco) and 100 U/mL PenStrep (Gibco). The cells were then stimulated with either 20 ng/mL human recombinant IL-23 or 200 U/mL human recombinant IFNα (PBL InterferonSource) for 5-6 hours. Luciferase expression was measured using the STEADY-GLO® Luciferase Assay System (Promega) according to the manufacturer's instructions. Inhibition data were calculated by comparison to no inhibitor control wells for 0% inhibition and non-stimulated control wells for 100% inhibition.

[2] = tested on: IFNα stimulated Kit225 T cells (STAT-dependent luciferase reporter); assay: Kit225 T cell assay, IFNα-stimulated STAT-dependent luciferase reporter; type: cell-based, human; conditions: for pIC50: 200 U/mL human recombinant IFNα, 5-6 hours, read-out: IFNα Kit225 Reporter (IC50)
Experimental: as §1

Row | pIC50 [1] | pIC50 [2] | Structure (SMILES) | also measured
1 | 6.77 | 7.30 | CNC(=O)c1nnc(NC(=O)C2CC2)cc1Nc1cccc(-c2nnc(C)o2)c1OC [Example 149] | –
2 | 7.40 | 7.22 | CNC(=O)c1nnc(NC(=O)C2CC2)cc1Nc1cccc(-c2cnn(C)c2)c1OC [Example 63] | –
3 | 7.70 | 8.22 | CNC(=O)c1nnc(Nc2ccnc(C)n2)cc1Nc1cccc(-c2ncn(C)n2)c1OC [Example 103] | –
4 | 6.68 | 6.82 | C#Cc1cccc(Nc2cc(NC(=O)C3CC3)nnc2C(=O)NC)c1OC [Example 139] | –
5 | 7.70 | – | CNC(=O)c1nnc(NC(=O)C2CC2)cc1Nc1cccc(-c2ncccn2)c1OC [Example 70] | –
6 | 7.00 | 7.22 | CNC(=O)c1nnc(NC(=O)C2CC2)cc1Nc1cccc(-c2ncc(C)s2)c1OC [Example 101] | –
7 | 6.82 | 7.52 | CNC(=O)c1nnc(NC(=O)C2CC2)cc1Nc1cccc(-c2cnn(CC(C)(C)O)c2)c1OC [Example 189] | –
8 | 7.70 | 8.00 | CNC(=O)c1nnc(NC(=O)C2CC2)cc1Nc1cccc(-c2ncn(CCF)n2)c1OC [Example 175] | –
9 | 8.15 | 8.26 | CNC(=O)c1nnc(Nc2cc(C)c(F)cn2)cc1Nc1cccc(-c2ncn(C)n2)c1OC [Example 56] | –
10 | 8.00 | 8.15 | CNC(=O)c1nnc(Nc2cc(C)ncn2)cc1Nc1cccc(-c2ncn(C)n2)c1OC [Example 109] | –
11 | 7.40 | 8.06 | CNC(=O)c1nnc(Nc2cc(C)n(C)n2)cc1Nc1cccc(-c2ncccn2)c1OC [Example 92] | –
12 | 7.15 | – | CNC(=O)c1nnc(NC(=O)C2CC2)cc1Nc1cccc(-c2cnccn2)c1OC [Example 75] | –
13 | 7.40 | 6.85 | CNC(=O)c1nnc(NC(=O)C2CC2)cc1Nc1cccc(-c2nnnn2C)c1OC [Example 143] | –
14 | 6.49 | – | CNC(=O)c1nnc(NC(=O)C2CC2)cc1Nc1cccc(-c2cccnn2)c1OC [Example 78] | –
15 | 6.89 | – | CNC(=O)c1nnc(NC(=O)C2CC2)cc1Nc1cccc(-c2ccccn2)c1OC [Example 72] | –
16 | 6.96 | – | CNC(=O)c1nnc(NC(=O)C2CC2)cc1Nc1cccc(-c2nccc(C)n2)c1OC [Example 82] | –
17 | 7.30 | – | CNC(=O)c1nnc(NC(=O)C2CC2)cc1Nc1cccc(-c2cnn(CC(F)F)c2)c1OC [Example 187] | –
18 | 7.52 | – | CNC(=O)c1nnc(NC(=O)C2CC2)cc1Nc1cccc(-c2ccncn2)c1OC [Example 86] | –

More lines, now with the values behind:

Row | Structure (SMILES) | pIC50 [1] | pIC50 [2] | also measured
19 | Cc1cc(Nc2cc(Nc3ccccc3S(C)(=O)=O)c(C(N)=O)nn2)ncc1F [Example 18] | 7.00 | 7.52 | –
20 | CNC(=O)c1nnc(Nc2ccccn2)cc1Nc1cccc(-c2ncc(C)s2)c1OC [Example 117] | 7.10 | 7.52 | –
21 | CNC(=O)c1nnc(Nc2ccccn2)cc1Nc1ccccc1S(C)(=O)=O [Example 31] | 7.10 | 7.05 | –
22 | CNC(=O)c1nnc(Nc2cc(C)ncn2)cc1Nc1ccccc1S(C)(=O)=O [Example 8] | 6.89 | 7.05 | –
23 | CNC(=O)c1nnc(Nc2cc(OC(C)C)nc(C)n2)cc1Nc1ccccc1S(C)(=O)=O [Example 44] | 6.60 | 7.00 | –
24 | CNC(=O)c1nnc(Nc2cc(F)ccn2)cc1Nc1ccccc1S(C)(=O)=O [Example 9] | 7.22 | 7.05 | –
25 | CNC(=O)c1nnc(Nc2ccccn2)cc1Nc1cccc(-c2ncn(C)n2)c1SC [Example 205] | – | – | pIC50 ([1]; KIT225): 6.85; pIC50 ([2]; KIT225): 7.30
26 | [2H]C([2H])([2H])NC(=O)c1nnc(NC(=O)C2CC2)cc1Nc1cccc(-c2nc[nH]n2)c1OC [Example 173] | – | – | IC50 ([1]; Homo sapiens, KIT225, read-out: IL-23 Kit225 Reporter (IC50, nM)): 120 nM; IC50 ([2]; Homo sapiens, KIT225, read-out: IFNα Kit225 Reporter (IC50, nM)): 20 nM
27 | CNC(=O)c1nnc(Nc2cc(C)c(F)cn2)cc1Nc1cccc(-c2ncnn2C)c1OC [Example 180] | 7.22 | 7.70 | –
28 | CNC(=O)c1nnc(Nc2cc(C)nc(C)n2)cc1Nc1cccc(-c2nnc(C)o2)c1OC [Example 153] | 6.82 | 7.52 | –
29 | CCc1cc(Nc2cc(Nc3ccccc3S(C)(=O)=O)c(C(=O)NC)nn2)ncn1 [Example 46] | 6.70 | 7.22 | –
30 | CNC(=O)c1nnc(Nc2cc(C)c(F)cn2)cc1Nc1cccc(-c2cnn(C)c2)c1OC [Example 59] | 7.70 | 7.70 | –
31 | CCOc1ccnc(Nc2cc(Nc3cccc(-c4ncn(C)n4)c3OC)c(C(=O)NC)nn2)c1 [Example 127] | 7.52 | 7.70 | –
32 | CNC(=O)c1nnc(Nc2ccc(C)nn2)cc1Nc1ccccc1S(C)(=O)=O [Example 19] | 7.05 | 7.05 | –
33 | CNC(=O)c1nnc(Nc2ccncn2)cc1Nc1cccc(-c2ncccn2)c1OC [Example 118] | 7.52 | 7.70 | –
34 | CNC(=O)c1nnc(Nc2cc(C)nc(C)n2)cc1Nc1cccc(-c2nnn(C)n2)c1OC [Example 144] | 8.00 | 8.50 | –
35 | CNC(=O)c1nnc(Nc2ccc(F)cn2)cc1Nc1cccc(-c2nccc(C)n2)c1OC [Example 83] | 7.30 | 7.40 | –
36 | CNC(=O)c1nnc(Nc2cc(C)n(C)n2)cc1Nc1cccc(-c2c[nH]nn2)c1OC [Example 193] | 7.52 | 7.40 | –
37 | CNC(=O)c1nnc(NC(=O)C2CC2F)cc1Nc1ccccc1S(C)(=O)=O (stereo not drawn) [Example 28] | 6.38 | 6.21 | –
38 | CNC(=O)c1nnc(Nc2cc(OC)ncn2)cc1Nc1ccccc1S(C)(=O)=O [Example 42] | 6.82 | 6.59 | –
39 | CNC(=O)c1nnc(Nc2cc(C)ncn2)cc1Nc1cccc(-c2ncccn2)c1OC [Example 119] | 8.00 | 8.13 | –
40 | CNC(=O)c1nnc(Nc2ccc(F)cn2)cc1Nc1cccc(-c2ccccn2)c1OC [Example 77] | 7.15 | 7.70 | –

Row | Structure (SMILES) | pIC50 [1] | pIC50 [2] | also measured
41 | [2H]C([2H])([2H])NC(=O)c1nnc(Nc2ccccn2)cc1Nc1cccc(-c2nc(C)no2)c1OC [Example 163, 4-((2-methoxy-3-(3-methyl-1,2,4-oxadiazol-5-yl)phenyl)amino)-N-trideutero-methyl-6-(pyridin-2-ylamino)pyridazine-3-carboxamide] | – | – | pIC50 ([1]; KIT225): 7.40; pIC50 ([2]; KIT225): 7.52
42 | CCn1cnc(-c2cccc(Nc3cc(Nc4ccccn4)nnc3C(=O)NC)c2OC)n1 [Example 177] | 8.82 | 8.79 | –
43 | CCc1cc(Nc2cc(Nc3ccccc3S(C)(=O)=O)c(C(=O)NC)nn2)nc(C)n1 [Example 47] | 7.30 | 7.70 | –
44 | CNC(=O)c1nnc(Nc2cccnn2)cc1Nc1cccc(-c2ncccn2)c1OC [Example 123] | 8.23 | 8.17 | –
45 | CNC(=O)c1nnc(Nc2cc(C)n(C)n2)cc1Nc1cccc(-c2nc(C)cs2)c1OC [Example 100] | 7.40 | 7.30 | –
46 | [2H]C([2H])([2H])NC(=O)c1nnc(NC(=O)C2CC2)cc1Nc1cccc(-c2nc(C)n(C)n2)c1OC [Example 181] | – | – | pIC50 ([1]; KIT225): 7.40; pIC50 ([2]; KIT225): 7.70
47 | CNC(=O)c1nnc(Nc2cc(OC)ccn2)cc1Nc1cccc(-c2ncn(C)n2)c1OC [Example 133] | 8.10 | 8.42 | –
48 | CNC(=O)c1nnc(Nc2cc(C)c(F)cn2)cc1Nc1cccc(-c2nnc(C)o2)c1OC [Example 150] | 7.70 | 8.00 | –
49 | CNC(=O)c1nnc(Nc2cc(OC(C)C)nc(C)n2)cc1Nc1cccc(-c2ncn(C)n2)c1OC [Example 62] | 7.52 | 7.70 | –
50 | CNC(=O)c1nnc(Nc2cc(C)c(F)cn2)cc1Nc1cccc(-c2ncc(C)s2)c1OC [Example 124] | 6.15 | 6.31 | –
51 | CNC(=O)c1nnc(Nc2ccccn2)cc1Nc1cccc(-c2ncnn2C)c1OC [Example 178] | 7.52 | 8.00 | –
52 | CNC(=O)c1nnc(Nc2ccccn2)cc1Nc1cccc(C(=O)NCCC(C)(C)O)c1OC [Example 168] | 7.00 | 7.10 | –
53 | CCc1ccnc(Nc2cc(Nc3ccccc3S(C)(=O)=O)c(C(=O)NC)nn2)c1 [Example 36] | 6.96 | 7.52 | –
54 | CNC(=O)c1nnc(Nc2cc(C#N)ccn2)cc1Nc1ccccc1S(C)(=O)=O [Example 11] | 7.00 | 7.22 | –
55 | CNC(=O)c1nnc(Nc2ccccn2)cc1Nc1cccc(C(=O)NCC(C)(C)O)c1OC [Example 166] | 6.57 | 6.68 | –
56 | CNC(=O)c1nnc(Nc2ccccn2)cc1Nc1cccc(-c2ccncn2)c1OC [Example 96] | 7.40 | 8.13 | –
57 | CNC(=O)c1nnc(Nc2cc(C)nc(C)n2)cc1Nc1cccc(-c2nc(C)cs2)c1OC [Example 97] | 8.00 | 7.70 | –
58 | CNC(=O)c1nnc(Nc2cc(C)c(F)cn2)cc1Nc1cccc(-c2ccnn2C)c1OC [Example 197] | 6.54 | 6.59 | –
59 | CNC(=O)c1nnc(Nc2ccccn2)cc1Nc1cccc(-c2nnc[nH]2)c1SC [Example 204, N-methyl-4-((2-(methylthio)-3-(4H-1,2,4-triazol-3-yl)phenyl)amino)-6-(pyridin-2-ylamino)pyridazine-3-carboxamide] | – | – | pIC50 ([1]; KIT225): 7.15; pIC50 ([2]; KIT225): 7.70
60 | CNC(=O)c1nnc(Nc2cc(C)nc(C)n2)cc1Nc1cccc(-c2cscn2)c1OC [Example 130] | 8.01 | 8.00 | –
61 | CNC(=O)c1nnc(Nc2cc(C)n(C)n2)cc1Nc1cccc(-c2ncc(C)s2)c1OC [Example 104] | – | 7.40 | –
